The values that follow come from publication PMC6600545, “Novel Peptide-Based Inhibitors for Microtubule Polymerization in Phytophthora capsici” (International Journal of Molecular Sciences, 2019).

Several values for one entry are separate records, joined by “and”; a condition that tells them apart may be missing. Equal values may be shown once. Peptide text beside a SMILES is read from it. * marks the point of attachment. FITC = O=C1OC2(c3ccc(O)cc3Oc3cc(O)ccc32)c2ccc(NC(=S)*)cc21

Series [1] has as its target P. capsici α, β-tubulin. In words: ELISA binding affinity of phages displaying tubulin-binding peptides (anti-M13 antibody). Also noted: species or system Phytophthora capsici. Particulars: phage displaying the peptide, 5 μg tubulin per well, OD 450 nm. As for the experimental part: Phage display was conducted with the M13 phage library in an effort to identify specific binding peptides to α, β-tubulin proteins from P. capsici. After five rounds of biopanning toward each target protein, 169 phage clones for α-tubulin and 112 for β-tubulin were selected. […] Testing was done for all the phages with different sequences to estimate their binding affinities for α, β-tubulins of P. capsici.
Phages displaying α, β-tubulin binding peptides were prepared, and their concentrations were determined by measurement of plaque-forming units (pfu) per volume. The binding affinities of phages displaying α, β-tubulin binding peptides were determined by the ELISA method, as described previously. Briefly, α, β-tubulin binding peptides were added in a concentration-dependent manner to a 96-well plate containing α, β-tubulin protein (5 μg per well), as indicated. The wells were then washed 10 times with 1X TBST (50 mM Tris-HCl, pH 7.5, 150 mM NaCl, and 0.1% Tween-20), followed by probing with an anti-M13 antibody (mouse monoclonal antibody, 1:5000 in 1X TBST, 0.2 μg·ml^−1; Amersham Bioscience, Little Chalfont, UK) for 1 h at room temperature. After washing five times with 1 X TBST buffer, anti-mouse IgG-horseradish peroxidase (HRP) conjugate was added, and the mixture was incubated for 1 h, followed by a color-developing reaction with tetramethylbenzidine (TMB) substrate solution ([TMB]/H2O2; Chemicon, Billerica, MA, USA). After 15 min, the reaction was terminated by the addition of 1 M H2SO4, and the optical densities were measured at 450 nm with a Biotrak multiwall plate reader (Amersham Bioscience).
(In an ELISA, binding on a coated surface is turned into a signal by an enzyme label.)

The target of series [2] is T1, P. capsici α, β-tubulin microtubule polymerization (Phytophthora capsici, UniProt A4ZYP2+A4ZYP4). In words: Inhibition of microtubule polymerization by phages (turbidity at 350 nm). Format: biochemical. Particulars: phage 10 nM, 40 min reaction time. The protocol: As a next step, all 15 phages were used to determine whether the phages could inhibit the activity of microtubule polymerization of P. capsici. The concentration of each phage was constant at 10 nM, and the polymerization was measured after 40 min of reaction time.
(§1) The polymerization and inhibition of microtubule assembly were studied using a spectroscopic method. Purified α, β-tubulins were mixed with 120 μL of polymerization buffer (80 mM PIPES (pH 7.4), 1 mM EGTA, 1 mM MgCl2, and 5% v/v glycerol) to a final concentration of 0.5 mg/mL total tubulin in 300 μL final reaction mixture. The polymerization assay was initiated with the addition of 2.5 mM GTP, and the reaction was continued until it reached the saturation point for 40 min. The contents were mixed, and the resulting turbidity due to microtubule formation was measured at 350 nm using an Optizen 2120 UV spectrophotometer. […] Furthermore, the polymerization and inhibition of microtubule formation were also confirmed through sodium dodecyl sulfate–polyacrylamide gel electrophoresis (SDS-PAGE), Western blot, and transmission electron microscopy (TEM). For the TEM analysis, samples were prepared according to the protocol reported by Vulevic et al.. Briefly, 30 μL of the saturated product of the polymerization reaction was immediately diluted with 10 μL of 0.4% glutaraldehyde, and the mixture was incubated for 3 min at room temperature. Then, 10 μL of the solution was applied to a 200 mesh, copper/formvar-coated grid (EMS) for 1 min, which was sequentially washed using two drops of dH2O and stained for 2 min with a drop of 2% uranyl acetate. Excess stain was removed by blotting with filter paper. Samples were air-dried and later viewed under a TEM.

Series [3] concerns the target P. capsici α, β-tubulin. As to the kind of experiment: Fluorometric binding affinity of FITC-labeled synthetic peptides. Also noted: species or system Phytophthora capsici. Particulars: FITC-labeled peptide, immobilised tubulin in 96-well plate, 2 h, ex 495 / em 520 nm. The text has this:
These peptides were synthesized with FITC-label for detection of the difference in the fluorescence by the absence and presence of target binding using a fluorescence microplate reader (see the Materials and Methods).
(§2) Peptides were synthesized by AnyGen Inc. (Gwangju, Korea). To prevent unintended interaction with other molecules, the peptides used in this study were modified by acetylation at the N-terminus and amidation at the C-terminus. With the addition of a lysine residue, the peptides were labeled with FITC at the C-terminus. This labeling was used for the identification of the target binding property by means of fluorescence detection. The purity of the synthesized peptides was greater than 90%, as assessed by HPLC. The peptides were further characterized to estimate their binding affinity and specificity. Briefly, serial dilutions of FITC-labeled peptides were incubated with α, β-tubulin proteins immobilized on a 96-well plate for 2 h. The binding affinities of the FITC-labeled peptides were determined by a fluorescence microplate reader (Molecular Devices, Sunnyvale, CA, USA) using the soft Max V5 system, with excitation at 495 nm and emission at 520 nm. The specificities of identified peptides for the target proteins were evaluated using the same fluorometric method described above, incorporating homologous H. sapiens α, β-tubulin. BSA protein was used as a negative control.

For the next series, the target named is H. sapiens α, β-tubulin. As to the kind of experiment: Fluorometric binding affinity of FITC-labeled synthetic peptides (specificity). Particulars: FITC-labeled peptide, immobilised tubulin in 96-well plate, 2 h, ex 495 / em 520 nm.
Excerpt: Investigation of the binding affinity for α, β-tubulins of H. sapiens to the synthesized peptides is necessary because peptide binding to H. sapiens tubulins could trigger severe toxicity in humans. First, α, β-tubulins of H. sapiens were individually overexpressed and purified (Figure 1). […] In addition, bovine serum albumin (BSA) was used as another control to confirm the specificity of the synthesized peptides. No significant binding fluorescence intensities for BSA were detected.
as §2

Series [4] has as its target T1, P. capsici α, β-tubulin microtubule polymerization. In words: biochemical. The protocol: The IC50 values of the four synthetic peptides were determined by fitting the relative inhibition data via the below Equation (1), where V0 is the reaction rate without inhibitor, Vf is the rate at saturation inhibition, and [I] is the inhibitor concentration. (1) V=(V0−Vf)×IC50/IC50+[I]+Vf
as §1

The test system of series [5] is H. sapiens α, β-tubulin microtubule polymerization. In words: Microtubule polymerization inhibition assay with synthetic peptides (turbidity at 350 nm). Type of series: biochemical. The following applies: 0.5 mg/mL total tubulin, 2.5 mM GTP, 40 min. The text has this:
(1) V=(V0−Vf)×IC50/IC50+[I]+Vf
Excess stain was removed by blotting with filter paper.

The subject of another series is P. capsici microtubules. In words: TEM analysis of polymerized microtubules. Type of series: biochemical, Phytophthora capsici. Particulars: polymerized for 40 min. The protocol: as §1, with “Excess stain was removed by blotting with filter paper. Samples were air-dried and later viewed under a TEM.” left out
For series [6] the following is noted: cited from earlier work. The text has this:
In the past decade, several new chemical classes which display potent antifungal activity targeting fungal α, β-tubulin have been developed such as zoxamide, inhibiting β-tubulin in Phytophthora sojae (P. sojae); methyl benzimidazole carbamate, (MBC) inhibiting β-tubulin in Podosphaera xanthii (P. xanthii); and benomyl. One of these microtubule-targeted fungicides is benomyl. In the presence of benomyl, the polymerization of tubulin to microtubules is inhibited resulting in retarded cell division.

T1 sequence (A4ZYP4 1-453): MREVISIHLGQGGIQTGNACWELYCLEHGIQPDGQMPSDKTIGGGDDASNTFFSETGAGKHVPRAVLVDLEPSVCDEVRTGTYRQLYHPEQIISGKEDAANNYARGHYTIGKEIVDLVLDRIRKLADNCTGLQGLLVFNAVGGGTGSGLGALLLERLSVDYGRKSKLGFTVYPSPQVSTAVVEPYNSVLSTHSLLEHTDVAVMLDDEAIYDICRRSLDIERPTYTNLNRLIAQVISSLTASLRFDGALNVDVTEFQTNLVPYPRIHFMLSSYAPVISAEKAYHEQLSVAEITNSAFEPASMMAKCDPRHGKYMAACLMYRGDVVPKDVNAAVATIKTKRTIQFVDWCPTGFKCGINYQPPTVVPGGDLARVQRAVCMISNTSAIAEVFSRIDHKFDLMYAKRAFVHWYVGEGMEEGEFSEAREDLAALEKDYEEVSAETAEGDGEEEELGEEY
T1 sequence (A4ZYP2 1-446): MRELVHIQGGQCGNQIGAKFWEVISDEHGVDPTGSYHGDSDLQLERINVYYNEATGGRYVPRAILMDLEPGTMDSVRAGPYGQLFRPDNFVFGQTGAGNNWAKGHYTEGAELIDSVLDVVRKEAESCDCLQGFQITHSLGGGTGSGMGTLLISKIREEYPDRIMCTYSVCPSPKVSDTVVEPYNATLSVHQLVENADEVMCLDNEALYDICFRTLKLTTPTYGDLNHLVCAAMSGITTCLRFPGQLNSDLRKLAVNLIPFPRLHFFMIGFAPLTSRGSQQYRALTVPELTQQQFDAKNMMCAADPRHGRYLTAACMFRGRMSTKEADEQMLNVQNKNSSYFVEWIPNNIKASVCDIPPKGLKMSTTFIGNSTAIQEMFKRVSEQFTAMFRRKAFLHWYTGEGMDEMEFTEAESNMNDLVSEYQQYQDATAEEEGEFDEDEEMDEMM

For NFTINGKTHRLW [α_P4], the affinity on P. capsici α, β-tubulin [1], expressed as Kd, was 0.298 ± 0.00145 nM. For the same molecule, in series [2], the “percent inhibition of microtubule polymerization” value (“percent inhibition” for short) came to 19%.
Turning to “TNTSWDPQYNPD [α_P8, M13 phage clone displaying 12-mer […]; (so in the source), selected against P. capsici α-tubulin]”, the Kd (usually the free concentration of one partner at which half of the binding sites on the other are occupied at equilibrium, for simple one-to-one binding) on P. capsici α, β-tubulin [1] turned out to be 0.0476 ± 0.00251 nM. Also, in series [2], the “percent inhibition” value was found to be 4%.
At P. capsici α, β-tubulin [1], “LMNPATMKTSSG [α_P7, M13 phage clone displaying 12-mer […], selected against P. capsici α-tubulin]” yielded a Kd of 0.36 ± 0.00187 nM.
Turning to `CC(=O)N[C@H](C(=O)N[C@@H](CC(N)=O)C(=O)N1CCC[C@H]1C(=O)N[C@@H](CCC(N)=O)C(=O)N[C@@H](C)C(=O)N[C@@H](CCCNC(=N)N)C(=O)N[C@@H](Cc1c[nH]c2ccccc12)C(=O)N[C@@H](Cc1c[nH]cn1)C(=O)N[C@@H](CCC(=O)O)C(=O)N[C@@H](Cc1ccc(O)cc1)C(=O)N[C@@H](CC(N)=O)C(=O)N[C@@H](Cc1ccccc1)C(=O)N[C@@H](CCCCNC(=S)Nc1ccc2c(c1)C(=O)OC21c2ccc(O)cc2Oc2cc(O)ccc21)C(N)=O)[C@@H](C)O` [β_P1] (Ac-TNPQARWHEYNFK(FITC)-NH2), the Kd amounted to 49.7 ± 2.9 nM at P. capsici α, β-tubulin [3]; 0.0419 ± 0.00105 nM on P. capsici α, β-tubulin [1]; 455 ± 50.7 nM at H. sapiens α, β-tubulin. For the same molecule, in series [2], the “percent inhibition” value stood at 21%. Moreover, in series [4], the IC50 (as a rule, the midpoint of a concentration-inhibition curve) came out at 6910 nM.
As to `CC(=O)N[C@H](C(=O)N[C@@H](CC(N)=O)C(=O)N[C@H](C(=O)N[C@@H](CO)C(=O)N[C@@H](Cc1c[nH]c2ccccc12)C(=O)N[C@@H](CC(=O)O)C(=O)N1CCC[C@H]1C(=O)N[C@@H](CCC(N)=O)C(=O)N[C@@H](Cc1ccc(O)cc1)C(=O)N[C@@H](CC(N)=O)C(=O)N1CCC[C@H]1C(=O)N[C@@H](CC(=O)O)C(=O)N[C@@H](CCCCNC(=S)Nc1ccc2c(c1)C(=O)OC21c2ccc(O)cc2Oc2cc(O)ccc21)C(N)=O)[C@@H](C)O)[C@@H](C)O` [α_P2] (Ac-TNTSWDPQYNPDK(FITC)-NH2), the Kd on P. capsici α, β-tubulin [3] worked out at 93.9 ± 11.2 nM; on P. capsici α, β-tubulin [1], 0.0801 ± 0.00113 nM; at H. sapiens α, β-tubulin it was 256 ± 31.1 nM. Moreover, the IC50 is 2430 nM in series [5] and 802 nM in series [4]. Besides, in series [2], the “percent inhibition” value stood at 54%. The “microtubule morphology by TEM” value with P. capsici microtubules (1 μM peptide) is reported as “Amorphous morphology of microtubules occurred predominantly”. Further, the “microtubule formation by TEM” value with P. capsici microtubules (Ten micromolar peptide) is given as “completely inhibited the formation of microtubules”.
In the case of `CC[C@H](C)[C@H](NC(C)=O)C(=O)N[C@H](C(=O)N[C@@H](CCSC)C(=O)N[C@@H](CO)C(=O)N[C@H](C(=O)N1CCC[C@H]1C(=O)N[C@@H](C)C(=O)N[C@@H](Cc1c[nH]cn1)C(=O)N[C@@H](CC(N)=O)C(=O)N[C@@H](C)C(=O)N[C@@H](CCCCN)C(=O)N[C@@H](CCC(=O)O)C(=O)N[C@@H](CCCCNC(=S)Nc1ccc2c(c1)C(=O)OC21c2ccc(O)cc2Oc2cc(O)ccc21)C(N)=O)C(C)C)[C@@H](C)O` [α_P1] (Ac-ITMSVPAHNAKEK(FITC)-NH2), the Kd at P. capsici α, β-tubulin [3] is 69.5 ± 6.4 nM; on P. capsici α, β-tubulin [1] it was 0.0342 ± 0.00211 nM; on H. sapiens α, β-tubulin, 134 ± 48.8 nM. The “percent inhibition” value in series [2] is listed as 28%. For the same molecule, half-maximal inhibition in series [4] (IC50) required 2690 nM.
“MVHSKASMWPGK [α_P12, M13 phage clone displaying 12-mer […], selected against P. capsici α-tubulin]” returned a Kd on P. capsici α, β-tubulin [1] of 0.69 ± 0.00227 nM.
Take `CC(=O)N[C@@H](CC(N)=O)C(=O)N[C@@H](Cc1c[nH]cn1)C(=O)N[C@@H](Cc1ccccc1)C(=O)N[C@H](C(=O)N1CCC[C@H]1C(=O)N[C@H](C(=O)N[C@@H](CO)C(=O)N[C@@H](CC(N)=O)C(=O)N[C@@H](CCCNC(=N)N)C(=O)N[C@@H](Cc1ccccc1)C(=O)N[C@@H](CC(N)=O)C(=O)N[C@@H](C)C(=O)N[C@@H](CCCCNC(=S)Nc1ccc2c(c1)C(=O)OC21c2ccc(O)cc2Oc2cc(O)ccc21)C(N)=O)[C@@H](C)O)C(C)C` [α_P3] (Ac-NHFVPTSNRFNAK(FITC)-NH2): the Kd was 79.2 ± 6.8 nM on P. capsici α, β-tubulin [3]; 0.12 ± 0.00123 nM on P. capsici α, β-tubulin [1]; 162 ± 8.1 nM at H. sapiens α, β-tubulin. In addition, the IC50 was 4110 nM in series [5] and 1240 nM in series [4]. Moreover, the “percent inhibition” value in series [2] worked out at 32%.
On P. capsici α, β-tubulin [1], NAITLLSPPLHK [α_P5] came in with a Kd of 0.0571 ± 0.00177 nM. Besides, the “percent inhibition” value in series [2] is 5% and 4%.
Take “KVYAINSWTNYY [α_P13, M13 phage clone displaying 12-mer […], selected against P. capsici α-tubulin]”: the Kd at P. capsici α, β-tubulin [1] amounted to 1.2 ± 0.0902 nM.
Consider NPIGDNYSGTGL [β_P2], for which, on P. capsici α, β-tubulin [1], the Kd was 0.0371 ± 0.00141 nM. For the same molecule, the “percent inhibition” value in series [2] worked out at 2%.
For the molecule “SSHNHDSYHGTK [α_P6, M13 phage clone displaying 12-mer […], selected against P. capsici α-tubulin]”, at P. capsici α, β-tubulin [1], the Kd amounted to 0.476 ± 0.00273 nM.
On P. capsici α, β-tubulin [1], “IGNSWPLTSHSW [α_P10, M13 phage clone displaying 12-mer […], selected against P. capsici α-tubulin]” came in with a Kd of 0.144 ± 0.0011 nM.
Still for that read-out and setting: for “SYNTFMYERASK [α_P11, M13 phage clone displaying 12-mer […], selected against P. capsici α-tubulin]” the value was 0.562 ± 0.00169 nM.
Regarding `CCCCNC(=O)n1c(NC(=O)OC)nc2ccccc21` [benomyl], the solubility in water entry in series [6] is on record as “low solubility”.
At P. capsici α, β-tubulin [1], “SNMKPSMEYSSR [α_P9, M13 phage clone displaying 12-mer […], selected against P. capsici α-tubulin]” showed a dissociation constant (Kd) of 0.273 ± 0.00179 nM.
